Half-life, absolute oral bioavailability and systemic half life data for 9 compounds are collected here from patent publication EP3828160A1, “TREPROSTINIL DERIVATIVE COMPOUNDS AND METHODS OF USING SAME” (Corsair Pharma, Inc., priority 2014, dated 2016).

The structures appear in SMILES notation. A value given as a limit tells only on which side of the number the result lay.

Data set [1] can be described thus: Human liver microsomal stability assay (Test 1). As to conditions: liver microsomes, 0.5 uM test compound, 37°C, up to 45 minutes, 0.5 mg microsomal protein, NADPH generating system, pH 7.4, read-out: Test 1 T1/2. The format is in vitro ADME. As to the method: (§1) Four assays on compounds were carried out by the following methods with the results shown in Table I. • (Test 1) Human liver microsomal stability assay was conducted by incubating 0.5 uM test compounds at 37°C for up to 45 minutes in 50 mM of potassium phosphate buffer (pH 7.4) containing 0.5 mg of microsomal protein and 50 µL of NADPH generating system (7.8 mg of glucose 6-phosphate, 1.7 mg of NADPH and 6 U of glucose 6-phosphate dehydrogenase per mL in 2% w/v of sodium bicarbonate). At 0, 5, 15, 30 and 45 min., an aliquot was taken, quenched with internal standard containing stop solution. No co-factor controls at 45 minutes were also prepared. After incubation, the samples were analyzed by LC-MS/MS. Peak area ratios of analyte to internal standard were used to calculate the intrinsic clearance. The intrinsic clearance (CLint) was determined from the first order elimination constant by non-linear regression. Formation of the active drug Compound A over the time course was also monitored by LC-MS/MS analysis. • (Test 2) Human plasma stability assay was conducted by incubating 0.5 uM test compounds at 37°C for up to 120 minutes in heparinated human plasma. At 0, 5, 15, 30, 60 and 120 […] min., an aliquot was taken, quenched with internal standard containing stop solution. After incubation, the samples were analyzed by LC-MS/MS. Peak area ratios of analyte to internal standard were used to calculate the half-life. Formation of the active drug Compound A over the time course was also monitored by LC-MS/MS analysis. • (Test 3) Human skin homogenate stability assay was conducted in a similar way as the human liver microsomal stability assay, by incubating 0.5 uM test compounds at 37°C for up to 45 minutes in 50 mM of potassium phosphate buffer (pH 7.4) containing 0.5 mg of human skin homogenate protein and 50 µL of NADPH generating system (7.8 mg of glucose 6-phosphate, 1.7 mg of NADPH and 6 U of glucose 6-phosphate dehydrogenase per mL in 2% w/v of sodium bicarbonate). At 0, 5, 15, 30 and 45 min., an aliquot was taken, quenched with internal standard containing stop solution. No co-factor controls at 45 minutes were also prepared. After incubation, the samples were analyzed by LC-MS/MS. Peak area ratios of analyte to internal standard were used to calculate the intrinsic clearance. The intrinsic clearance (CLint) was determined from the first order elimination constant by non-linear regression. Formation of the active drug Compound A over the time course was also monitored by LC-MS/MS analysis. • (Test 4) Human hepatocyte stability assay was conducted by incubating 0.5 uM test compound at 37°C for up to 240 minutes. Cryopreserved human hepatocytes were obtained from Celsis IVT (Baltimore, Maryland). Cells were thawed according to vendor's instructions and were suspended in William's Medium E to 0.5 million cells/mL. Test compounds were spiked into the cell suspension to initiate the reactions. At 0, 10,30,60, 120 and 240 min., an aliquot was taken, quenched with internal standard containing stop solution. After incubation, the samples were analyzed by LC-MS/MS. Peak area ratios of analyte to internal standard were used to calculate the intrinsic clearance. The intrinsic clearance (CLint) was determined from the first order elimination constant by non-linear regression. Formation of the active drug Compound A over the time course was also monitored by LC-MS/MS analysis.

Data set [2] is described as follows: Human hepatocyte stability assay (Test 4). It is filed as in vitro ADME. As to conditions: cryopreserved hepatocytes, 0.5 uM test compound, 37°C, up to 240 minutes, 0.5 million cells/mL in William's Medium E, read-out: Test 4 T1/2. The protocol: as §1
The nature of data set [3]: Human plasma stability assay (Test 2). As to conditions: 0.5 uM test compound, 37°C, up to 120 minutes, heparinated human plasma, read-out: Test 2 T1/2. The format is in vitro ADME. As to the method:
as §1

Data set [4] can be described thus: Human skin homogenate stability assay (Test 3). The format is in vitro ADME. As to conditions: 0.5 uM test compound, 37°C, up to 45 minutes, 0.5 mg human skin homogenate protein, NADPH generating system, pH 7.4, read-out: Test 3 T1/2. As to the method: as §1
The conditions of data set [5]: treprostinil as the free acid, cited from earlier work.

Turning to `CCCCCC(O)CCC1C(O)CC2Cc3c(cccc3OCC(=O)NCC3CC3)CC21` (stereo not drawn) [Compound 2, N-Cyclopropylmethyl-2-[2-hydroxy-1-(3-hydroxy-octyl)-2,3,3a,4,9,9a-hexahydro-1H-cyclopenta[b]naphthalen-5-yloxy]-acetamide], the half-life at 0.5 uM in data set [1] is < 15 min; in data set [2] it was 31 to 60 min; in data set [3], > 60 min.

Regarding `CCCCCC(O)CCC1C(O)CC2Cc3c(cccc3OCC(=O)N(C)CC(=O)OC)CC21` (stereo not drawn) [Compound 13, ({2-[2-Hydroxy-1-(3-hydroxy-octyl)-2,3,3a,4,9,9a-hexahydro-1H-cyclopenta[b]naphthalen-5-yloxy]-acetyl}-methyl-amino)-acetic acid methyl ester], the half-life at 0.5 uM was < 15 min in data set [1], < 15 min in data set [2] and > 60 min in data set [3].

Take `CCCCCC(O)CCC1C(O)CC2Cc3c(cccc3OCC(=O)NCCO)CC21` (stereo not drawn) [Compound 7, N-(2-Hydroxy-ethyl)-2-[2-hydroxy-1-(3-hydroxy-octyl)-2,3,3a,4,9,9a-hexahydro-1H-cyclopenta[b]naphthalen-5-yloxy]-acetamide]: the half-life at 0.5 uM was 15 to 30 min in data set [1], 15 to 30 min in data set [2] and > 60 min in data set [3].

Regarding `CCCCCC(O)CCC1C(O)CC2Cc3c(cccc3OCC(=O)NCC(F)(F)F)CC21` (stereo not drawn) [Compound 14, 2-[2-Hydroxy-1-(3-hydroxy-octyl)-2,3,3a,4,9,9a-hexahydro-1H-cyclopenta[b]naphthalen-5-yloxy]-N-(2,2,2-trifluoro-ethyl)-acetamide], the half-life at 0.5 uM in data set [4] is > 60 min; in data set [1] it was < 15 min; in data set [2] it was < 15 min; in data set [3], > 60 min.

Take `CCCCC[C@H](O)CC[C@@H]1[C@H]2Cc3cccc(OCC(=O)O)c3C[C@H]2C[C@H]1O` [treprostinil]: the absolute oral bioavailability entry in data set [5] (oral) is “less than 10%”. Further, the systemic half life entry in data set [5] (due to significant metabolism) is listed as “very short”.

With `CCCCCC(O)CCC1C(OC(=O)OCC)CC2Cc3c(cccc3OCC(=O)OC)CC21` (stereo not drawn) [Compound 25, [2-Ethoxycarbonyloxy-1-(3-hydroxy-octyl)-2,3,3a,4,9,9a-hexahydro-1H-cyclopenta[b]naphthalen-5-yloxy]-acetic acid methyl ester], the figures for the half-life at 0.5 uM in data set [4], in data set [1] and in data set [3] were 31 to 60 min, < 15 min and > 60 min, respectively.

Take `CCCCCC(O)CCC1C(OC(=O)CCCC)CC2Cc3c(cccc3OCC(=O)OC)CC21` (stereo not drawn) [Compound 22, Pentanoic acid 1-(3-hydroxy-octyl)-5-methoxycarbonylmethoxy-2,3,3a,4,9,9a-hexahydro-1H-cyclopenta[b]naphthalen-2-yl ester]: the half-life at 0.5 uM is > 60 min in data set [4], < 15 min in data set [1] and > 60 min in data set [3].

With `CCCCC[C@H](O)CC[C@@H]1[C@H]2Cc3cccc4c3C[C@H]2C[C@H]1OC(=O)CO4` [Compound 57, Treprostinil 2-hydroxy lactone], the half-life at 0.5 uM in data set [1], in data set [2] and in data set [3] was > 60 min each time.

Take `CCCCCC(O)CCC1C(O)CC2Cc3c(cccc3OCC(=O)OCC(C)(C)C)CC21` (stereo not drawn) [Compound 16, [2-Hydroxy-1-(3-hydroxy-octyl)-2,3,3a,4,9,9a-hexahydro-1H-cyclopenta[b]naphthalen-5-yloxy]-acetic acid 2,2-dimethyl-propyl ester]: the half-life at 0.5 uM in data set [4] was 15 to 30 min; in data set [1], < 15 min; in data set [3] it was 15 to 30 min.
